According to US20240199547A1, “OPTICAL ABSORBENT COMPOSITION” (LMS CO., LTD., priority 2022, published 2024):

Test: Solubility of each synthesized chemical compound in solvents at room temperature
Assay type: physicochemical
Conditions: cyclohexanone, room temperature (about 25° C.)
Description: The solubility of each synthesized chemical compound was evaluated. Solubility was determined according to the following criteria by evaluating the solubility of each chemical compound in a plurality of solvents (cyclohexanone, toluene, methyl isobutyl ketone (MIBK) or methyl ethyl ketone (MEK)) at room temperature (about 25° C.).
A: When the solubility is 1% by mass or more.
B: When the solubility is 0.5% by mass or more and less than 1% by mass.
C: When the solubility is 0.2% by mass or more and less than 0.5% by mass.
D: When the solubility is less than 0.2% by mass.
The solubility evaluation results were summarized and described in Table 1.

Compound | Solubility in Cyclohexanone
CCCCC(CC)C(=O)Nc1cc2c(cc1C1=C([O-])/C(=c3\cc4c(cc3NC(=O)C(CC)CCCC)=[N+](CCCC)C(C)C4(C)C)C1=O)C(C)(C)C(C)N2CCCC (centres unmarked) [Synthesis Example 2] | A (When the solubility is 1% by mass or more.)
CCCCCCCCN1c2cc(NC(=O)C(F)(F)F)c(C3=C([O-])/C(=c4\cc5c(cc4NC(=O)C(F)(F)F)=[N+](CCCCCCCC)C(CC)C5(C)C)C3=O)cc2C(C)(C)C1CC (centres unmarked) [Synthesis Example 3] | A (When the solubility is 1% by mass or more.)
CCCC(=O)Nc1cc2c(cc1C1=C([O-])/C(=c3\cc4c(cc3NC(=O)CCC)=[N+](CCOC)C(C)C4(C)C)C1=O)C(C)(C)C(C)N2CCOC (centres unmarked) [Synthesis Example 4] | A (When the solubility is 1% by mass or more.)
CCCCCCN1c2cc(NC(=O)OCC)c(C3=C([O-])/C(=c4\cc5c(cc4NC(=O)OCC)=[N+](CCCCCC)C(C)C5(C)C)C3=O)cc2C(C)(C)C1C (centres unmarked) [Synthesis Example 5] | A (When the solubility is 1% by mass or more.)
CC(=O)Nc1cc2c(cc1C1=C([O-])/C(=c3\cc4c(cc3NC(C)=O)=[N+](C)C(C)C4(C)C)C1=O)C(C)(C)C(C)N2C (centres unmarked) [Synthesis Example 6] | B (When the solubility is 0.5% by mass or more and less than 1% by mass.)

Same assay, conditions: methyl ethyl ketone (MEK), room temperature (about 25° C.)

Compound | Solubility in MEK
CCCCC(CC)C(=O)Nc1cc2c(cc1C1=C([O-])/C(=c3\cc4c(cc3NC(=O)C(CC)CCCC)=[N+](CCCC)C(C)C4(C)C)C1=O)C(C)(C)C(C)N2CCCC (centres unmarked) [Synthesis Example 2] | A (When the solubility is 1% by mass or more.)
CCCCCCCCN1c2cc(NC(=O)C(F)(F)F)c(C3=C([O-])/C(=c4\cc5c(cc4NC(=O)C(F)(F)F)=[N+](CCCCCCCC)C(CC)C5(C)C)C3=O)cc2C(C)(C)C1CC (centres unmarked) [Synthesis Example 3] | A (When the solubility is 1% by mass or more.)
CCCC(=O)Nc1cc2c(cc1C1=C([O-])/C(=c3\cc4c(cc3NC(=O)CCC)=[N+](CCOC)C(C)C4(C)C)C1=O)C(C)(C)C(C)N2CCOC (centres unmarked) [Synthesis Example 4] | A (When the solubility is 1% by mass or more.)
CCCCCCN1c2cc(NC(=O)OCC)c(C3=C([O-])/C(=c4\cc5c(cc4NC(=O)OCC)=[N+](CCCCCC)C(C)C5(C)C)C3=O)cc2C(C)(C)C1C (centres unmarked) [Synthesis Example 5] | A (When the solubility is 1% by mass or more.)
CC(=O)Nc1cc2c(cc1C1=C([O-])/C(=c3\cc4c(cc3NC(C)=O)=[N+](C)C(C)C4(C)C)C1=O)C(C)(C)C(C)N2C (centres unmarked) [Synthesis Example 6] | B (When the solubility is 0.5% by mass or more and less than 1% by mass.)

Same assay, conditions: methyl isobutyl ketone (MIBK), room temperature (about 25° C.)

Compound | Solubility in MIBK
CCCCC(CC)C(=O)Nc1cc2c(cc1C1=C([O-])/C(=c3\cc4c(cc3NC(=O)C(CC)CCCC)=[N+](CCCC)C(C)C4(C)C)C1=O)C(C)(C)C(C)N2CCCC (centres unmarked) [Synthesis Example 2] | A (When the solubility is 1% by mass or more.)
CCCCCCCCN1c2cc(NC(=O)C(F)(F)F)c(C3=C([O-])/C(=c4\cc5c(cc4NC(=O)C(F)(F)F)=[N+](CCCCCCCC)C(CC)C5(C)C)C3=O)cc2C(C)(C)C1CC (centres unmarked) [Synthesis Example 3] | A (When the solubility is 1% by mass or more.)
CCCC(=O)Nc1cc2c(cc1C1=C([O-])/C(=c3\cc4c(cc3NC(=O)CCC)=[N+](CCOC)C(C)C4(C)C)C1=O)C(C)(C)C(C)N2CCOC (centres unmarked) [Synthesis Example 4] | A (When the solubility is 1% by mass or more.)
CCCCCCN1c2cc(NC(=O)OCC)c(C3=C([O-])/C(=c4\cc5c(cc4NC(=O)OCC)=[N+](CCCCCC)C(C)C5(C)C)C3=O)cc2C(C)(C)C1C (centres unmarked) [Synthesis Example 5] | A (When the solubility is 1% by mass or more.)
CC(=O)Nc1cc2c(cc1C1=C([O-])/C(=c3\cc4c(cc3NC(C)=O)=[N+](C)C(C)C4(C)C)C1=O)C(C)(C)C(C)N2C (centres unmarked) [Synthesis Example 6] | B (When the solubility is 0.5% by mass or more and less than 1% by mass.)

Same assay, conditions: toluene, room temperature (about 25° C.)

Compound | Solubility in Toluene
CCCCC(CC)C(=O)Nc1cc2c(cc1C1=C([O-])/C(=c3\cc4c(cc3NC(=O)C(CC)CCCC)=[N+](CCCC)C(C)C4(C)C)C1=O)C(C)(C)C(C)N2CCCC (centres unmarked) [Synthesis Example 2] | A (When the solubility is 1% by mass or more.)
CCCCCCCCN1c2cc(NC(=O)C(F)(F)F)c(C3=C([O-])/C(=c4\cc5c(cc4NC(=O)C(F)(F)F)=[N+](CCCCCCCC)C(CC)C5(C)C)C3=O)cc2C(C)(C)C1CC (centres unmarked) [Synthesis Example 3] | A (When the solubility is 1% by mass or more.)
CCCC(=O)Nc1cc2c(cc1C1=C([O-])/C(=c3\cc4c(cc3NC(=O)CCC)=[N+](CCOC)C(C)C4(C)C)C1=O)C(C)(C)C(C)N2CCOC (centres unmarked) [Synthesis Example 4] | A (When the solubility is 1% by mass or more.)
CCCCCCN1c2cc(NC(=O)OCC)c(C3=C([O-])/C(=c4\cc5c(cc4NC(=O)OCC)=[N+](CCCCCC)C(C)C5(C)C)C3=O)cc2C(C)(C)C1C (centres unmarked) [Synthesis Example 5] | A (When the solubility is 1% by mass or more.)
CC(=O)Nc1cc2c(cc1C1=C([O-])/C(=c3\cc4c(cc3NC(C)=O)=[N+](C)C(C)C4(C)C)C1=O)C(C)(C)C(C)N2C (centres unmarked) [Synthesis Example 6] | B (When the solubility is 0.5% by mass or more and less than 1% by mass.)
